From PubChem BioAssay (NCI)
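Compound exposure: 48 hours, 5 concentrations, 96-well plates. Definition used: TGI = concentration required for complete inhibition of growth.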

Experiments:
Test in all cases: inhibition of tumour cell growth, NCI panel, 48 h
[1] = test system: SNB-19 CNS
[2] = test system: HT29 colon
[3] = test system: NCI-H522 lung
[4] = test system: DLD-1 colon
[5] = test system: UO-31 renal
[6] = test system: SF-539 CNS
[7] = test system: A498 renal
[8] = test system: HCT-116 colon
[9] = test system: OVCAR-3 ovarian
[10] = test system: SK-MEL-2 melanoma
[11] = test system: SW-620 colon
[12] = test system: DMS 273 small cell lung
[13] = test system: CCRF-CEM leukemia
[14] = test system: DMS 114 small cell lung
[15] = test system: SK-OV-3 ovarian
[16] = test system: KM20L2 colon
[17] = test system: EKVX NSCLC
[18] = test system: M19-MEL melanoma
[19] = test system: HCT-15 colon
[20] = test system: UACC-257 melanoma
[21] = test system: RPMI-8226 leukemia
[22] = test system: HCC-2998 colon
[23] = test system: K-562 leukemia
[24] = test system: MOLT-4 leukemia
[25] = test system: IGROV1 ovarian
[26] = test system: OVCAR-5 ovarian
[27] = test system: HOP-62 NSCLC
[28] = test system: KM12 colon
[29] = test system: SF-295 CNS
[30] = test system: U251 CNS
[31] = test system: ACHN renal
[32] = test system: SK-MEL-5 melanoma
[33] = test system: SN12C renal
[34] = test system: RXF 393 renal
[35] = test system: SF-268 CNS
[36] = test system: NCI-H23 lung
[37] = test system: CAKI-1 renal
[38] = test system: NCI-H460 lung
[39] = test system: OVCAR-4 ovarian
[40] = test system: M14 melanoma
[41] = test system: MALME-3M melanoma
[42] = test system: COLO 205 colon
[43] = test system: SR leukemia
[44] = test system: LXFL 529 NSCLC
[45] = test system: OVCAR-8 ovarian
[46] = test system: HL-60(TB) leukemia
[47] = test system: XF 498 CNS
[48] = test system: SK-MEL-28 melanoma
[49] = test system: SNB-75 CNS
[50] = test system: HOP-92 NSCLC
[51] = test system: TK-10 renal
[52] = test system: UACC-62 melanoma
[53] = test system: SNB-78 CNS
[54] = test system: A549 NSCLC
[55] = test system: NCI-H226 lung
[56] = test system: 786-0 renal
[57] = test system: HOP-18 NSCLC
[58] = test system: LOX IMVI melanoma

## C=CCN1/C(=C(\C#N)c2nc3ccccc3[nH]2)Sc2c1nc[nH]c2=O
[1]
  TGI: > 100 µM
[2]
  TGI: > 100 µM
[3]
  TGI: > 100 µM
[4]
  TGI: > 100 µM
[5]
  TGI: > 100 µM
[6]
  TGI: > 100 µM
[7]
  TGI: > 100 µM
[8]
  TGI: > 100 µM
[9]
  TGI: > 100 µM
[10]
  TGI: > 100 µM
[11]
  TGI: > 100 µM
[12]
  TGI: > 100 µM
[13]
  TGI: > 100 µM
[14]
  TGI: > 100 µM
[15]
  TGI: > 100 µM
[16]
  TGI: > 100 µM
[17]
  TGI: > 100 µM
[18]
  TGI: > 100 µM
[19]
  TGI: > 100 µM
[20]
  TGI: > 100 µM
[21]
  TGI: > 100 µM
[22]
  TGI: > 100 µM
[23]
  TGI: > 100 µM
[24]
  TGI: > 100 µM
[25]
  TGI: > 100 µM
[26]
  TGI: > 100 µM
[27]
  TGI: > 100 µM
[28]
  TGI: > 100 µM
[29]
  TGI: > 100 µM
[30]
  TGI: > 100 µM
[31]
  TGI: > 100 µM
[32]
  TGI: > 100 µM
[33]
  TGI: > 100 µM
[34]
  TGI: > 100 µM
[35]
  TGI: > 100 µM
[36]
  TGI: > 100 µM
[37]
  TGI: > 100 µM
[38]
  TGI: > 100 µM
[39]
  TGI: > 100 µM
[40]
  TGI: > 100 µM
[41]
  TGI: > 100 µM
[42]
  TGI: > 100 µM
[43]
  TGI: > 100 µM
[44]
  TGI: > 100 µM
[45]
  TGI: > 100 µM
[46]
  TGI: > 100 µM
[47]
  TGI: > 100 µM
[48]
  TGI: > 100 µM
[49]
  TGI: > 100 µM
[50]
  TGI: > 100 µM
[51]
  TGI: > 100 µM
[52]
  TGI: > 100 µM
[53]
  TGI: > 100 µM
[54]
  TGI: > 100 µM

## Cc1c[n+]2c3ccccc3c3ccccc3c2s1
[1]
  TGI: 15.6 µM
[2]
  TGI: > 100 µM
[3]
  TGI: 15.7 µM
[55]
  TGI: 3.89 µM
[4]
  TGI: > 44.5 µM
[5]
  TGI: 14.5 µM
[6]
  TGI: 16.6 µM
[7]
  TGI: > 100 µM
[8]
  TGI: > 70.1 µM
[9]
  TGI: 12.9 µM
[10]
  TGI: 25.7 µM
[11]
  TGI: > 75.5 µM
[12]
  TGI: 20.1 µM
[13]
  TGI: 28.4 µM
[14]
  TGI: 16.1 µM
[15]
  TGI: > 71.4 µM
[17]
  TGI: > 100 µM
[56]
  TGI: > 100 µM
[18]
  TGI: 18.3 µM
[19]
  TGI: > 100 µM
[20]
  TGI: 18.3 µM
[21]
  TGI: 57.8 µM
[22]
  TGI: 13.7 µM
[23]
  TGI: 44.5 µM
[24]
  TGI: 13.4 µM
[25]
  TGI: > 100 µM
[26]
  TGI: 12.8 µM
[27]
  TGI: 28 µM
[28]
  TGI: 9.4 µM
[29]
  TGI: 33.5 µM
[30]
  TGI: 12.3 µM
[31]
  TGI: > 100 µM
[32]
  TGI: 17.9 µM
[33]
  TGI: 15.5 µM
[34]
  TGI: 0.559 µM
[35]
  TGI: 3.27 µM
[36]
  TGI: 3.9 µM
[37]
  TGI: 31.5 µM
[38]
  TGI: 25.5 µM
[57]
  TGI: > 100 µM
[58]
  TGI: 41.9 µM
[39]
  TGI: 32.7 µM
[40]
  TGI: 35.4 µM
[41]
  TGI: 7.87 µM
[42]
  TGI: 26.1 µM
[43]
  TGI: 32.3 µM
[44]
  TGI: 21.6 µM
[45]
  TGI: 28.8 µM
[46]
  TGI: > 61.6 µM
[47]
  TGI: 18 µM
[48]
  TGI: 18 µM
[49]
  TGI: 12.1 µM
[50]
  TGI: 47.4 µM
[51]
  TGI: > 70.9 µM
[52]
  TGI: > 47.1 µM
[53]
  TGI: > 29.5 µM
[54]
  TGI: > 100 µM
